# Source: publication PMC11822212, “High-throughput screening identifies Aurora kinase B as a critical therapeutic target for Merkel cell carcinoma” (Nature Communications, 2025)
# Read-outs that look alike come from different tables or passages of the source.
# How the values were obtained:
# HEK293T cells = assay: qHTS cell viability (CellTiter-Glo, 72 h; primary screen), control cell line; assay type: cell-based, human
# MCC26 cells (VN-MCC) = assay: qHTS cell viability (CellTiter-Glo, 72 h; primary and follow-up small molecule screen); assay type: cell-based, human
# MCC13 cells (VN-MCC) = assay: as above; assay type: cell-based, human
# [1] = test system: VP-MCC cell lines (WAGA, MKL-1, MKL-2); assay: qHTS cell viability, VP-MCC cell lines as a group (mean AUC, VP.MCC.avg); assay type: cell-based, human
# [2] = test system: six MCC cell lines and four control cell lines; assay: qHTS cell viability, all 10 cell lines screened; assay type: cell-based
# MKL-1 cells (VP-MCC) = assay: qHTS cell viability (CellTiter-Glo, 72 h; primary and follow-up small molecule screen); assay type: cell-based, human
# CRL-7250 cells = assay: qHTS cell viability (CellTiter-Glo, 72 h; primary screen), control cell line; assay type: cell-based
# UISO cells (VN-MCC) = assay: qHTS cell viability (CellTiter-Glo, 72 h; primary and follow-up small molecule screen); assay type: cell-based, human
# HACAT cells = assay: qHTS cell viability (CellTiter-Glo, 72 h; primary screen), control cell line; assay type: cell-based, human
# [3] = test system: control cell lines (HACAT, HEK293T, CRL-7250, NIH-3T3); assay: qHTS cell viability, control cell lines as a group (mean AUC, Control.avg); assay type: cell-based
# [4] = test system: VN-MCC cell lines (MCC13, MCC26, UISO); assay: qHTS cell viability, VN-MCC cell lines as a group (mean AUC, VN.MCC.avg); assay type: cell-based, human
# MKL-2 cells (VP-MCC) = assay: qHTS cell viability (CellTiter-Glo, 72 h; primary and follow-up small molecule screen); assay type: cell-based, human
# [5] = test system: MCC cell lines (WAGA, MKL-1, MKL-2, MCC13, MCC26, UISO); assay: qHTS cell viability, all six MCC cell lines as a group (mean AUC, MCC.avg); assay type: cell-based, human
# NIH-3T3 cells = assay: qHTS cell viability (CellTiter-Glo, 72 h; primary screen), control cell line; assay type: cell-based, mouse
# WAGA cells (VP-MCC) = assay: qHTS cell viability (CellTiter-Glo, 72 h; primary and follow-up small molecule screen); assay type: cell-based, human
# [6] = MIPE library, 11-point DRC, control cell line, sheet S2D
# [7] = MIPE library, 11-point DRC, control cell line, sheet S2E
# [8] = MIPE library, 11-point DRC, sheet S2D
# [9] = MIPE library, 11-point DRC, sheet S2E
structure (smiles),measurement,setting,value
C=Cc1c(C)c2cc3nc(cc4[nH]c(cc5nc(cc1[nH]2)C(C)=C5CCC(=O)O)c(CCC(=O)OC)c4C)[C@@]1(C)C3=CC=C(C(=O)OC)[C@H]1C(=O)OC [Verteporfin],HEK293T_AUC,HEK293T cells; [6],435.497
same,HEK293T_AUC,HEK293T cells; [7],435.497
same,MCC26_AUC,MCC26 cells (VN-MCC); [8],397.153
same,MCC26_AUC,MCC26 cells (VN-MCC); [9],397.153
same,MCC13_AUC,MCC13 cells (VN-MCC); [8],440.785
same,MCC13_AUC,MCC13 cells (VN-MCC); [9],440.785
same,Control-VP-MCC,"[1]; MIPE library, Control AUC minus VP-MCC AUC (therapeutic window), sheet S2D",208.806
same,Control-VP-MCC,"[1]; MIPE library, Control AUC minus VP-MCC AUC (therapeutic window), sheet S2E",208.806
same,VP-MCC_Avg_AUC,"[1]; MIPE library, mean AUC of VP-MCC cell lines, sheet S2D",254.477
same,VP-MCC_Avg_AUC,"[1]; MIPE library, mean AUC of VP-MCC cell lines, sheet S2E",254.477
same,Control-MCC,"[2]; MIPE library, Control AUC minus MCC AUC (therapeutic window), sheet S2D",151.157
same,Control-MCC,"[2]; MIPE library, Control AUC minus MCC AUC (therapeutic window), sheet S2E",151.157
same,MKL1_AUC,MKL-1 cells (VP-MCC); [8],279.212
same,MKL1_AUC,MKL-1 cells (VP-MCC); [9],279.212
same,CRL7250_AUC,CRL-7250 cells; [6],465.081
same,CRL7250_AUC,CRL-7250 cells; [7],465.081
same,UISO_AUC,UISO cells (VN-MCC); [8],271.383
same,UISO_AUC,UISO cells (VN-MCC); [9],271.383
same,HACAT_AUC,HACAT cells; [6],478.04
same,HACAT_AUC,HACAT cells; [7],478.04
same,Control_Avg_AUC,"[3]; MIPE library, mean AUC of control cell lines, sheet S2D",463.283
same,Control_Avg_AUC,"[3]; MIPE library, mean AUC of control cell lines, sheet S2E",463.283
same,Control-VN-MCC,"[4]; MIPE library, Control AUC minus VN-MCC AUC (therapeutic window), sheet S2D",93.5089
same,Control-VN-MCC,"[4]; MIPE library, Control AUC minus VN-MCC AUC (therapeutic window), sheet S2E",93.5089
same,VN-MCC_Avg_AUC,"[4]; MIPE library, mean AUC of VN-MCC cell lines, sheet S2D",369.774
same,VN-MCC_Avg_AUC,"[4]; MIPE library, mean AUC of VN-MCC cell lines, sheet S2E",369.774
same,MKL2_AUC,MKL-2 cells (VP-MCC); [8],217.219
same,MKL2_AUC,MKL-2 cells (VP-MCC); [9],217.219
same,MCC_Avg_AUC,"[5]; MIPE library, mean AUC of six MCC cell lines, sheet S2D",312.125
same,MCC_Avg_AUC,"[5]; MIPE library, mean AUC of six MCC cell lines, sheet S2E",312.125
same,NIH3T3_AUC,NIH-3T3 cells; [6],474.512
same,NIH3T3_AUC,NIH-3T3 cells; [7],474.512
same,WAGA_AUC,WAGA cells (VP-MCC); [8],266.998
same,WAGA_AUC,WAGA cells (VP-MCC); [9],266.998
CCCCCCC[N+](CC)(CC)CCCCc1ccc(Cl)cc1.Cc1ccc(S(=O)(=O)[O-])cc1 [Clofilium tosylate],HEK293T_AUC,"HEK293T cells; NPC library, qHTS dose-response AUC, HEK293T control",375.013
same,MCC26_AUC,"MCC26 cells (VN-MCC); NPC library, qHTS dose-response AUC, MCC26",466.849
same,Area under the dose-response curve (AUC) MCC26 Replicate 1,"MCC26 cells (VN-MCC); follow-up screen, MCC26, replicate 1",410.9
same,Area under the dose-response curve (AUC) MCC26 Replicate 2,"MCC26 cells (VN-MCC); follow-up screen, MCC26, replicate 2",395.3
same,Area under the dose-response curve (AUC) MCC26 Replicate 3,"MCC26 cells (VN-MCC); follow-up screen, MCC26, replicate 3",393.8
same,MCC13_AUC,"MCC13 cells (VN-MCC); NPC library, qHTS dose-response AUC, MCC13",487.681
same,Area under the dose-response curve (AUC) MCC13 Replicate 1,"MCC13 cells (VN-MCC); follow-up screen, MCC13, replicate 1",426.2
same,Area under the dose-response curve (AUC) MCC13 Replicate 2,"MCC13 cells (VN-MCC); follow-up screen, MCC13, replicate 2",460.3
same,Area under the dose-response curve (AUC) MCC13 Replicate 3,"MCC13 cells (VN-MCC); follow-up screen, MCC13, replicate 3",452.0
same,VP-MCC_Avg_AUC,"[1]; NPC library, mean AUC of VP-MCC cell lines",309.028
same,Control-VP-MCC,"[1]; NPC library, therapeutic window: Control avg AUC minus VP-MCC avg AUC",109.618
same,Control-MCC,"[2]; NPC library, therapeutic window: Control avg AUC minus MCC avg AUC",42.4257
same,MKL1_AUC,"MKL-1 cells (VP-MCC); NPC library, qHTS dose-response AUC, MKL1",311.939
same,Area under the dose-response curve (AUC) MKL-1 Replicate 1,"MKL-1 cells (VP-MCC); follow-up screen, MKL-1, replicate 1",329.2
same,Area under the dose-response curve (AUC) MKL-1 Replicate 2,"MKL-1 cells (VP-MCC); follow-up screen, MKL-1, replicate 2",327.6
same,Area under the dose-response curve (AUC) MKL-1 Replicate 3,"MKL-1 cells (VP-MCC); follow-up screen, MKL-1, replicate 3",322.0
same,CRL7250_AUC,"CRL-7250 cells; NPC library, qHTS dose-response AUC, CRL7250 control",402.177
same,UISO_AUC,"UISO cells (VN-MCC); NPC library, qHTS dose-response AUC, UISO",375.709
same,Area under the dose-response curve (AUC) UISO Replicate 1,"UISO cells (VN-MCC); follow-up screen, UISO, replicate 1",319.6
same,Area under the dose-response curve (AUC) UISO Replicate 2,"UISO cells (VN-MCC); follow-up screen, UISO, replicate 2",366.0
same,Area under the dose-response curve (AUC) UISO Replicate 3,"UISO cells (VN-MCC); follow-up screen, UISO, replicate 3",321.7
same,HACAT_AUC,"HACAT cells; NPC library, qHTS dose-response AUC, HACAT control",444.696
same,Control_Avg_AUC,"[3]; NPC library, mean AUC of control cell lines",418.646
same,VN-MCC_Avg_AUC,"[4]; NPC library, mean AUC of VN-MCC cell lines",443.413
same,Control-VN-MCC,"[4]; NPC library, therapeutic window: Control avg AUC minus VN-MCC avg AUC",-24.7666
same,MKL2_AUC,"MKL-2 cells (VP-MCC); NPC library, qHTS dose-response AUC, MKL2",283.262
same,Area under the dose-response curve (AUC) MKL-2 Replicate 1,"MKL-2 cells (VP-MCC); follow-up screen, MKL-2, replicate 1",313.7
same,Area under the dose-response curve (AUC) MKL-2 Replicate 2,"MKL-2 cells (VP-MCC); follow-up screen, MKL-2, replicate 2",309.2
same,Area under the dose-response curve (AUC) MKL-2 Replicate 3,"MKL-2 cells (VP-MCC); follow-up screen, MKL-2, replicate 3",301.8
same,MCC_Avg_AUC,"[5]; NPC library, mean AUC of six MCC cell lines",376.221
same,NIH3T3_AUC,"NIH-3T3 cells; NPC library, qHTS dose-response AUC, NIH3T3 control",452.7
same,WAGA_AUC,"WAGA cells (VP-MCC); NPC library, qHTS dose-response AUC, WAGA",331.884
same,Area under the dose-response curve (AUC) WAGA Replicate 1,"WAGA cells (VP-MCC); follow-up screen, WAGA, replicate 1",348.8
same,Area under the dose-response curve (AUC) WAGA Replicate 2,"WAGA cells (VP-MCC); follow-up screen, WAGA, replicate 2",411.4
same,Area under the dose-response curve (AUC) WAGA Replicate 3,"WAGA cells (VP-MCC); follow-up screen, WAGA, replicate 3",326.5
COc1cc(C[C@@H](C)N)c(OC)cc1C.Cl,HEK293T_AUC,HEK293T cells,304.503
same,MCC26_AUC,MCC26 cells (VN-MCC),411.829
same,MCC13_AUC,MCC13 cells (VN-MCC),469.394
same,Control-VP-MCC,[1],255.371
same,VP-MCC_Avg_AUC,[1],79.8375
same,Control-MCC,[2],78.6147
same,MKL1_AUC,MKL-1 cells (VP-MCC),46.808
same,CRL7250_AUC,CRL-7250 cells,239.588
same,UISO_AUC,UISO cells (VN-MCC),418.828
same,HACAT_AUC,HACAT cells,438.262
same,Control_Avg_AUC,[3],335.209
same,Control-VN-MCC,[4],-98.1417
same,VN-MCC_Avg_AUC,[4],433.35
same,MKL2_AUC,MKL-2 cells (VP-MCC),72.1855
same,MCC_Avg_AUC,[5],256.594
same,NIH3T3_AUC,NIH-3T3 cells,358.481
same,WAGA_AUC,WAGA cells (VP-MCC),120.519
